Measurements published in PubChem BioAssay AID248 (DTP/NCI, 2004).
Where “and” joins values, the source holds several entries; their conditions need not be identical. Equal entries are not always repeated. Toxic doses and inconclusive results are not listed.

Test system: L1210 leukemia ip in BDF1 mice, survival T/C
Experiment: NCI In Vivo Anticancer Drug Screen. Data for tumor model L1210 Leukemia (intraperitoneal) in B6D2F1 (BDF1) mice
Conditions: higher = longer survival
Procedure, shortened: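 Tumor cells were implanted, animals were treated, and survival was followed. The result divides the treated measurement by the vehicle-control measurement.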

## NC(=S)N/N=C/c1ccc(O)cn1
endpoint: mean survival time, dose: 3.13 mg/kg/injection, schedule: Q03HX024 (ip), vehicle: Klucel (hydroxypropylcellulose) (HPC)
  T/C: 120 % of control
endpoint: mean survival time, dose: 3.13 mg/kg/injection, schedule: Q03HX024 (ip), vehicle: other
  T/C: 120 % of control
endpoint: mean survival time, dose: 3.13 mg/kg/injection, schedule: Q03HX024 (ip), vehicle: saline
  T/C: 113 % of control
endpoint: mean survival time, dose: 6.25 mg/kg/injection, schedule: Q03HX024 (ip), vehicle: other
  T/C: 106 % of control
endpoint: mean survival time, dose: 9.5 mg/kg/injection, schedule: Q01DX005 (iv), vehicle: other
  T/C: 104 % of control
endpoint: mean survival time, dose: 11.0 mg/kg/injection, schedule: Q03HX032 (ip), vehicle: saline with Tween-80
  T/C: 123 % of control
endpoint: mean survival time, dose: 12.5 mg/kg/injection, schedule: Q03HX024 (ip), vehicle: other
  T/C: 106 % of control
endpoint: mean survival time, dose: 12.5 mg/kg/injection, schedule: Q03HX024 (ip), vehicle: saline
  T/C: 159 % of control
endpoint: mean survival time, dose: 19.0 mg/kg/injection, schedule: Q01DX005 (iv), vehicle: other
  T/C: 111 % of control
endpoint: mean survival time, dose: 25.0 mg/kg/injection, schedule: Q01DX015 (ip), vehicle: carboxymethylcellulose (CMC)
  T/C: 158 % of control
endpoint: mean survival time, dose: 33.0 mg/kg/injection, schedule: Q## X008 (ip), vehicle: other
  T/C: 124 % of control
endpoint: mean survival time, dose: 33.0 mg/kg/injection, schedule: Q## X016 (ip), vehicle: other
  T/C: 122 % of control
endpoint: mean survival time, dose: 37.5 mg/kg/injection, schedule: Q01DX005 (ip), vehicle: other
  T/C: 159 % of control
endpoint: mean survival time, dose: 40.0 mg/kg/injection, schedule: Q06HX016 (ip), vehicle: Klucel (hydroxypropylcellulose) (HPC)
  T/C: 154 % of control
endpoint: mean survival time, dose: 44.0 mg/kg/injection, schedule: Q03HX032 (ip), vehicle: saline with Tween-80
  T/C: 159 % of control
endpoint: mean survival time, dose: 50.0 mg/kg/injection, schedule: Q01DX001 (ip), vehicle: saline
  T/C: 114 % of control
endpoint: mean survival time, dose: 50.0 mg/kg/injection, schedule: Q01DX009 (oral), vehicle: carboxymethylcellulose (CMC)
  T/C: 120 % of control
endpoint: mean survival time, dose: 50.0 mg/kg/injection, schedule: Q03HX024 (ip), vehicle: other
  T/C: 151 % of control
endpoint: mean survival time, dose: 50.0 mg/kg/injection, schedule: Q03HX024 (ip), vehicle: saline
  T/C: 151 % of control
endpoint: mean survival time, dose: 62.0 mg/kg/injection, schedule: Q03HX032 (ip), vehicle: carboxymethylcellulose (CMC)
  T/C: 118 % of control
endpoint: mean survival time, dose: 66.0 mg/kg/injection, schedule: Q03HX032 (ip), vehicle: saline with Tween-80
  T/C: 102 % of control and 116 % of control
endpoint: mean survival time, dose: 75.0 mg/kg/injection, schedule: Q03HX008 (ip), vehicle: alkali diluted with saline
  T/C: 156 % of control
endpoint: mean survival time, dose: 93.0 mg/kg/injection, schedule: Q03HX032 (ip), vehicle: carboxymethylcellulose (CMC)
  T/C: 96 % of control
endpoint: mean survival time, dose: 100.0 mg/kg/injection, schedule: Q01DX001 (ip), vehicle: saline
  T/C: 120 % of control
endpoint: mean survival time, dose: 100.0 mg/kg/injection, schedule: Q01DX001 (oral), vehicle: other
  T/C: 106 % of control
endpoint: mean survival time, dose: 100.0 mg/kg/injection, schedule: Q01DX009 (oral), vehicle: other
  T/C: 121 % of control
endpoint: mean survival time, dose: 100.0 mg/kg/injection, schedule: Q03HX024 (ip), vehicle: saline
  T/C: 104 % of control
endpoint: mean survival time, dose: 100.0 mg/kg/injection, schedule: Q04DX003 (ip), vehicle: alkali diluted with saline
  T/C: 111 % of control
endpoint: mean survival time, dose: 100.0 mg/kg/injection, schedule: Q## X002 (oral), vehicle: other
  T/C: 98 % of control
endpoint: mean survival time, dose: 100.0 mg/kg/injection, schedule: Q## X003 (oral), vehicle: other
  T/C: 108 % of control
endpoint: mean survival time, dose: 100.0 mg/kg/injection, schedule: Q## X008 (oral), vehicle: other
  T/C: 101 % of control
endpoint: mean survival time, dose: 100.0 mg/kg/injection, schedule: Q## X016 (oral), vehicle: other
  T/C: 97 % of control
endpoint: mean survival time, dose: 100.0 mg/kg/injection, schedule: Q## X024 (oral), vehicle: other
  T/C: 101 % of control
endpoint: mean survival time, dose: 150.0 mg/kg/injection, schedule: Q01DX001 (ip), vehicle: alkali diluted with saline
  T/C: 104 % of control
endpoint: mean survival time, dose: 150.0 mg/kg/injection, schedule: Q01DX001 (ip), vehicle: other
  T/C: 118 % of control
endpoint: mean survival time, dose: 150.0 mg/kg/injection, schedule: Q03HX024 (ip), vehicle: saline
  T/C: 152 % of control
endpoint: mean survival time, dose: 150.0 mg/kg/injection, schedule: Q08DX002 (ip), vehicle: alkali diluted with saline
  T/C: 102 % of control
endpoint: mean survival time, dose: 150.0 mg/kg/injection, schedule: Q## X002 (ip), vehicle: other
  T/C: 114 % of control
endpoint: mean survival time, dose: 150.0 mg/kg/injection, schedule: Q## X016 (ip), vehicle: other
  T/C: 153 % of control
endpoint: mean survival time, dose: 200.0 mg/kg/injection, schedule: Q01DX001 (oral), vehicle: other
  T/C: 103 % of control
endpoint: mean survival time, dose: 200.0 mg/kg/injection, schedule: Q01DX009 (ip), vehicle: saline
  T/C: 119 % of control
endpoint: mean survival time, dose: 200.0 mg/kg/injection, schedule: Q01DX009 (oral), vehicle: carboxymethylcellulose (CMC)
  T/C: 157 % of control
endpoint: mean survival time, dose: 200.0 mg/kg/injection, schedule: Q04DX003 (ip), vehicle: alkali diluted with saline
  T/C: 112 % of control
endpoint: mean survival time, dose: 200.0 mg/kg/injection, schedule: Q## X002 (oral), vehicle: other
  T/C: 104 % of control
endpoint: mean survival time, dose: 200.0 mg/kg/injection, schedule: Q## X003 (oral), vehicle: other
  T/C: 112 % of control
endpoint: mean survival time, dose: 200.0 mg/kg/injection, schedule: Q## X008 (oral), vehicle: other
  T/C: 111 % of control
endpoint: mean survival time, dose: 200.0 mg/kg/injection, schedule: Q## X016 (oral), vehicle: other
  T/C: 106 % of control
endpoint: mean survival time, dose: 200.0 mg/kg/injection, schedule: Q## X024 (oral), vehicle: other
  T/C: 102 % of control
endpoint: mean survival time, dose: 280.0 mg/kg/injection, schedule: Q01DX001 (ip), vehicle: saline with Tween-80
  T/C: 118 % of control and 119 % of control
endpoint: mean survival time, dose: 300.0 mg/kg/injection, schedule: Q01DX001 (ip), vehicle: alkali diluted with saline
  T/C: 108 % of control
endpoint: mean survival time, dose: 300.0 mg/kg/injection, schedule: Q01DX009 (ip), vehicle: saline with Tween-80
  T/C: 107 % of control
endpoint: mean survival time, dose: 300.0 mg/kg/injection, schedule: Q08DX002 (ip), vehicle: alkali diluted with saline
  T/C: 105 % of control
endpoint: mean survival time, dose: 400.0 mg/kg/injection, schedule: Q01DX001 (ip), vehicle: saline
  T/C: 109 % of control
endpoint: mean survival time, dose: 400.0 mg/kg/injection, schedule: Q01DX001 (oral), vehicle: other
  T/C: 105 % of control
endpoint: mean survival time, dose: 400.0 mg/kg/injection, schedule: Q01DX009 (oral), vehicle: carboxymethylcellulose (CMC)
  T/C: 153 % of control
endpoint: mean survival time, dose: 400.0 mg/kg/injection, schedule: Q01DX009 (oral), vehicle: other
  T/C: 156 % of control
endpoint: mean survival time, dose: 400.0 mg/kg/injection, schedule: Q01DX015 (ip), vehicle: carboxymethylcellulose (CMC)
  T/C: 103 % of control
endpoint: mean survival time, dose: 400.0 mg/kg/injection, schedule: Q03HX024 (ip), vehicle: clinical formulation
  T/C: 98 % of control
endpoint: mean survival time, dose: 400.0 mg/kg/injection, schedule: Q## X002 (oral), vehicle: other
  T/C: 105 % of control
endpoint: mean survival time, dose: 400.0 mg/kg/injection, schedule: Q## X003 (ip), vehicle: other
  T/C: 150 % of control
endpoint: mean survival time, dose: 400.0 mg/kg/injection, schedule: Q## X003 (oral), vehicle: other
  T/C: 116 % of control
endpoint: mean survival time, dose: 400.0 mg/kg/injection, schedule: Q## X008 (oral), vehicle: other
  T/C: 110 % of control
endpoint: mean survival time, dose: 400.0 mg/kg/injection, schedule: Q## X016 (oral), vehicle: other
  T/C: 120 % of control
endpoint: mean survival time, dose: 400.0 mg/kg/injection, schedule: Q## X024 (oral), vehicle: other
  T/C: 122 % of control
endpoint: mean survival time, dose: 427.0 mg/kg/injection, schedule: Q01DX001 (ip), vehicle: saline with Tween-80
  T/C: 121 % of control and 122 % of control
endpoint: mean survival time, dose: 600.0 mg/kg/injection, schedule: Q01DX001 (ip), vehicle: alkali diluted with saline
  T/C: 108 % of control
endpoint: mean survival time, dose: 600.0 mg/kg/injection, schedule: Q01DX005 (ip), vehicle: other
  T/C: 97 % of control
endpoint: mean survival time, dose: 600.0 mg/kg/injection, schedule: Q01DX009 (ip), vehicle: other
  T/C: 108 % of control
endpoint: mean survival time, dose: 600.0 mg/kg/injection, schedule: Q08DX002 (ip), vehicle: alkali diluted with saline
  T/C: 105 % of control
endpoint: mean survival time, dose: 800.0 mg/kg/injection, schedule: Q01DX001 (oral), vehicle: other
  T/C: 106 % of control
endpoint: mean survival time, dose: 800.0 mg/kg/injection, schedule: Q## X002 (oral), vehicle: other
  T/C: 115 % of control
endpoint: mean survival time, dose: 800.0 mg/kg/injection, schedule: Q## X003 (oral), vehicle: other
  T/C: 107 % of control
endpoint: mean survival time, dose: 800.0 mg/kg/injection, schedule: Q## X008 (oral), vehicle: other
  T/C: 123 % of control
endpoint: mean survival time, dose: 800.0 mg/kg/injection, schedule: Q## X024 (oral), vehicle: other
  T/C: 155 % of control
endpoint: mean survival time, dose: 833.0 mg/kg/injection, schedule: Q01DX001 (ip), vehicle: saline
  T/C: 153 % of control
endpoint: mean survival time, dose: 1200.0 mg/kg/injection, schedule: Q01DX001 (ip), vehicle: other
  T/C: 158 % of control
endpoint: mean survival time, dose: 1388.0 mg/kg/injection, schedule: Q01DX001 (ip), vehicle: saline
  T/C: 157 % of control
endpoint: mean survival time, dose: 1600.0 mg/kg/injection, schedule: Q## X024 (ip), vehicle: other
  T/C: 104 % of control
endpoint: mean survival time, dose: 2400.0 mg/kg/injection, schedule: Q01DX001 (ip), vehicle: saline
  T/C: 150 % of control and 152 % of control
endpoint: mean survival time, dose: 2400.0 mg/kg/injection, schedule: Q## X016 (ip), vehicle: other
  T/C: 100 % of control
endpoint: median survival time, dose: 37.5 mg/kg/injection, schedule: Q01DX009 (ip), vehicle: water
  T/C: 155 % of control and 157 % of control
endpoint: median survival time, dose: 50.0 mg/kg/injection, schedule: Q01DX009 (ip), vehicle: other
  T/C: 150 % of control
endpoint: median survival time, dose: 100.0 mg/kg/injection, schedule: Q04DX003 (ip), vehicle: other
  T/C: 105 % of control
endpoint: median survival time, dose: 100.0 mg/kg/injection, schedule: Q04DX003 (sc), vehicle: other
  T/C: 100 % of control
endpoint: median survival time, dose: 150.0 mg/kg/injection, schedule: Q01DX009 (ip), vehicle: water
  T/C: 122 % of control and 124 % of control
endpoint: median survival time, dose: 200.0 mg/kg/injection, schedule: Q04DX003 (ip), vehicle: other
  T/C: 120 % of control
endpoint: median survival time, dose: 300.0 mg/kg/injection, schedule: Q01DX009 (ip), vehicle: water
  T/C: 105 % of control and 106 % of control
endpoint: median survival time, dose: 400.0 mg/kg/injection, schedule: Q04DX003 (ip), vehicle: other
  T/C: 100 % of control
endpoint: median survival time, dose: 400.0 mg/kg/injection, schedule: Q04DX003 (sc), vehicle: other
  T/C: 120 % of control
endpoint: median survival time, dose: 500.0 mg/kg/injection, schedule: Q01DX001 (ip), vehicle: saline
  T/C: 150 % of control
endpoint: median survival time, dose: 1388.0 mg/kg/injection, schedule: Q01DX001 (ip), vehicle: saline
  T/C: 157 % of control
